Data as given in US20130130306A1, “ZN (II) BASED COLORIMETRIC SENSOR AND PROCESS FOR THE PREPARATION THEREOF” (COUNCIL OF SCIENTIFIC & INDUSTRIAL RESEARCH, priority 2010, published 2013).
“Also recorded” adds a separate entry of the source.

Columns and labels:
[1] = test system: living microbes (eukaryotes and prokaryotes); assay: Toxicity and viability of cells after staining; type: cell-based
Description: We also explored the possibility of using L.Zn/L.Zn.α-CD as the staining agent for prokaryotes (Gram +ve and Gram −ve bacterial cells). […] As expected stained cells for Gram +ve bacteria appeared longer as compared to those of the stained Gram −ve bacteria. The difference in the staining intensity for two different bacteria with the L.Zn.α-CD (Scheme 2) could be much better understood after going into the depth of cell biology of each bacterial cells and the detailed biochemistry involved while staining; besides, difference in cell structure and cell wall composition of the respective bacteria. […] Changes on the cell surfaces on binding of the dye, L.Zn (Scheme 1, Formula 1A) were also evident from the SEM images recorded for Gram −ve and Gram +ve bacteria, in absence and presence of staining agent (FIGS. 11C to 11F). Difference in the contrasts in the SEM images of the sample surfaces also signifies the non-homogeneous chemical nature of the sample surface. Relatively brighter cell exterior for Gram −ve bacteria, as compared to the Gram +ve one indicates the accumulation of higher negative charge on the extra-cellular surface. […] The growth profile of Eukaryotic Yeast cells (Saccharomyces cerevisiae) and Prokaryotic bacterial cells ([…]) in an aqueous culture medium in absence and presence of L.Zn (Scheme 1, Formula 1A) are shown in FIG. 12. Change in absorbance (at λmax=600 nm) vs time (t) was plotted up to 30 h; as no appreciable change in growth was observed thereafter. […] FIGS. 12a, 12c and 12e show the actual growth curve of Saccharomyces cerevisiae, Pseudomonas fluorescence and Bacillus megaterium, respectively with time. While, FIGS. 12b, 12d and 12f show relative build up of ATP in cytoplasm with time for Saccharomyces cerevisiae, Pseudomonas fluorescence and Bacillus megaterium, respectively in presence of L.Zn (Scheme 1, Formula 1A) (D1) and L.Zn.α-CD (Scheme 2) (D2). […]

[2] = test system: Pseudomonas fluorescence (Gram −ve); assay: Staining of Gram −ve bacteria, light microscopy and growth kinetics; type: cell-based; set-up: change in color of bacterial stains: dose or concentration left out as unconfirmed; conditions: for growth of colonies streaked on nutrient agar plates after incubation with sensor: Pseudomonas species in King's B media, 25° C., 10 mins
Method: The isolates of Saccharomyces sp. were cultured in GYE (glucose yeast extract agar) media, Bacillus sp. in Nutrient broth, and Pseudomonas sp. in King's B medium for 24 hour at 37° C. […] of this was taken and was allowed to incubate at 30 to 40° C. along with 100 μl of L.Zn (Scheme 1, Formula 1A) (1.16×10^−4 M) solution. The samples were fixed overnight at room temperature 25-30° C. with 2% (v/v) glutaraldehyde in 0.1 M phosphate buffer at pH 7.5. The samples were then washed with 0.1 M phosphate buffer (pH 7.5) at room temperature 25-30° C. for 1 hour. Post-fixation was carried out in 2% (w/v) osmium tetroxide (OsO4) in the same buffer and was washed once with 0.1 M phosphate buffer for 20 minutes. Then, the water was removed by a graded water-ethanol series; 25% ethanol for 15 min, 50% ethanol for 15 min, 75% ethanol for 30 min, 90% ethanol for 60 min, absolute alcohol for 30 min. The specimens were rinsed in buffer and coated with gold in a sputter coater (Polaron SC7620) prior to microscopy. The material was examined in a Scanning Electron Microscope (SEM) LEO 1430 VP at an accelerating Voltage of 15 kV.
The isolates of Saccharomyces sp. were cultured in GYE (glucose yeast extract agar) media, Bacillus sp. in Nutrient broth, and Pseudomonas sp. in King's B medium for 24 hour at 37° C. 1001 of this was taken and was allowed to incubate at room temperature along with 1001 of [L.Zn]=1.16×10^−4M solution (pH 7.2, 10 mM HEPES buffer solution). The samples were fixed overnight at 25 to 35° C. with 2% (v/v) glutaraldehyde in 0.1 M phosphate buffer at pH 7.5. The samples were then; washed with 0.1 M phosphate buffer (pH 7.5) at 25 to 35° C. for 1 hour. Post-fixation was carried out in 2% (w/v) osmium tetroxide (OsO4) in the same buffer and was washed once with 0.1 M phosphate buffer for 20 minutes. Then, the water was removed by a graded water-ethanol series; 25% ethanol for 15 min, 50% ethanol for 15 min, 75% ethanol for 30 min, 90% ethanol for 60 min, absolute alcohol for 30 min. The specimens were rinsed in buffer and coated with gold in a sputter coater (Polaron SC7620) prior to microscopy. The material was examined in a scanning electron microscope (SEM) LEO 1430 VP at an accelerating Voltage of 15 kV.
We also explored the possibility of using L.Zn/L.Zn.α-CD as the staining agent for prokaryotes (Gram +ve and Gram −ve bacterial cells). […] As expected stained cells for Gram +ve bacteria appeared longer as compared to those of the stained Gram −ve bacteria. The difference in the staining intensity for two different bacteria with the L.Zn.α-CD (Scheme 2) could be much better understood after going into the depth of cell biology of each bacterial cells and the detailed biochemistry involved while staining; besides, difference in cell structure and cell wall composition of the respective bacteria. […] Changes on the cell surfaces on binding of the dye, L.Zn (Scheme 1, Formula 1A) were also evident from the SEM images recorded for Gram −ve and Gram +ve bacteria, in absence and presence of staining agent (FIGS. 11C to 11F). Difference in the contrasts in the SEM images of the sample surfaces also signifies the non-homogeneous chemical nature of the sample surface. […] The growth profile of Eukaryotic Yeast cells (Saccharomyces cerevisiae) and Prokaryotic bacterial cells ([…]) in an aqueous culture medium in absence and presence of L.Zn (Scheme 1, Formula 1A) are shown in FIG. 12. […]

## CN(C)c1ccc(N=Nc2ccc(S(=O)(=O)N3CCCNCCNCCCNCC3)cc2)cc1.O=[N+]([O-])[O-].O=[N+]([O-])[O-].[Zn+2] [L.Zn]
[1]; after staining
  growth of stained cells in their respective media: stained cells were found to grow in their respective media
[1]; eukaryotes and prokaryotes, cell proliferation and growth after staining
  toxicity to living cells: non-toxic; also recorded: non toxic
[1]; light microscope, until 3 h
  viability of stained cells, hanging drop in concavity slide: cell growth, cell division, as well as their motility could be observed
[2]; sensor 1.0×10^−4 M
  growth of colonies streaked on nutrient agar plates after incubation with sensor: colonies of the test microbes grew
[2]; sensor 1.25×10^−4 M
  growth of colonies streaked on nutrient agar plates after incubation with sensor: colonies of the test microbes grew
[2]; sensor 1.45×10^−4 M
  growth of colonies streaked on nutrient agar plates after incubation with sensor: colonies of the test microbes grew
[2]; extent of absorbance changes and slope, growth kinetics at 600 nm
  binding to ATP released during cell growth, Gram −ve compared to Gram +ve: higher binding
[2]; light microscopy
  change in color of bacterial stains: distinct change in color
